pIC50: −log10 of the molar value.

The target in this assay is T1, chicken gizzard smooth muscle myosin subfragment-1 chemically crosslinked to cardiac or skeletal actin (Gallus gallus, UniProt P10587).
T1 construct: chicken gizzard smooth muscle myosin subfragment-1; from tissue; host or cells: chicken gizzard
In words: Smooth muscle myosin ATPase dose response assay (pyruvate kinase/horseradish peroxidase/pyruvate oxidase-coupled, amplex red fluorescence). Format: biochemical. Conditions: read-out: IC50 Arithmetic Mean. Here is the method: In Vitro Model of Dose Dependent Smooth Muscle Myosin ATPase Modulation
Screening assays were performed using a pyruvate kinase and lactate dehydrogenase-coupled ATPase assay containing the following reagents: Potassium PIPES (50 mM), MgCl2 (3 mM), KCl (100 mM), ATP (0.15 mM), DTT (1 mM), BSA (0.1 mg/ml), NADH (0.5 mM), PEP (1.5 mM), pyruvate kinase (4 U/ml), lactate dehydrogenase (8 U/ml), and antifoam (50 ppm) (concentrations expressed are final assay concentrations). The pH was adjusted to 6.80 at 22° C. by addition of potassium hydroxide. Lead optimization assays were performed with a more sensitive pyruvate kinase/horseradish peroxidase/pyruvate oxidase-coupled ATPase assay containing the following reagents: Potassium PIPES (12 mM), MgCl2 (2 mM), KCl (100 mM), ATP (0.15 mM), BSA (0.05 mg/ml), potassium phosphate (2 mM), amplex red (0.1 mM), PEP (0.1 mM), pyruvate kinase (4 U/ml), horseradish peroxidase (0.5 U/ml), pyruvate oxidase (0.5 U/ml), and antifoam (50 ppm) (concentrations expressed are final assay concentrations). The pH was adjusted to 7.00 at 22° C. by addition of potassium hydroxide.
The protein components specific to this assay are chicken gizzard smooth muscle myosin subfragment-1 that has been chemically crosslinked to either cardiac or skeletal actin using an excess of 1-Ethyl-3-[3-dimethylaminopropyl]carbodiimide hydrochloride and N-hydroxysuccinimide. The exact concentration of the crosslinked smooth muscle myosin in the assay is determined empirically, by titration to achieve a desired rate of ATP hydrolysis. The concentration varies between protein preparations due to variations in the fraction of active molecules in each preparation.
Compound dose response assays are performed by first preparing a dilution series of test compound, each with an assay mixture containing potassium PIPES, MgCl2, KCl, ATP, BSA, potassium phosphate, amplex red, PEP, crosslinked smooth muscle actomyosin (subfragment-1), antifoam, and water. The assay is started by adding an equal volume of solution containing potassium Pipes, MgCl2, KCl, BSA, potassium phosphate, pyruvate kinase, horseradish peroxidase, pyruvate oxidase, antifoam, and water. ATP hydrolysis is monitored by measuring the fluorescence of amplex red (excitation at 480 nm, emission at 615 nm). The resulting dose response curve is fit by the 4 parameter equation y=Bottom+((Top-Bottom)/(1+((IC50/X)^Hill))). The IC50 is defined as the concentration at which ATPase activity is midway between the top and bottom of the dose response curve.

T1 sequence (P02607 2-151): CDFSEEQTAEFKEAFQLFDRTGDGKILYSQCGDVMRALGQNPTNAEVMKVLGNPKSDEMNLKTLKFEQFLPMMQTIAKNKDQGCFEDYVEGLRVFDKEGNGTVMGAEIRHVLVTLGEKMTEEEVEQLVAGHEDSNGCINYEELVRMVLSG
T1 sequence (P10587 84-789): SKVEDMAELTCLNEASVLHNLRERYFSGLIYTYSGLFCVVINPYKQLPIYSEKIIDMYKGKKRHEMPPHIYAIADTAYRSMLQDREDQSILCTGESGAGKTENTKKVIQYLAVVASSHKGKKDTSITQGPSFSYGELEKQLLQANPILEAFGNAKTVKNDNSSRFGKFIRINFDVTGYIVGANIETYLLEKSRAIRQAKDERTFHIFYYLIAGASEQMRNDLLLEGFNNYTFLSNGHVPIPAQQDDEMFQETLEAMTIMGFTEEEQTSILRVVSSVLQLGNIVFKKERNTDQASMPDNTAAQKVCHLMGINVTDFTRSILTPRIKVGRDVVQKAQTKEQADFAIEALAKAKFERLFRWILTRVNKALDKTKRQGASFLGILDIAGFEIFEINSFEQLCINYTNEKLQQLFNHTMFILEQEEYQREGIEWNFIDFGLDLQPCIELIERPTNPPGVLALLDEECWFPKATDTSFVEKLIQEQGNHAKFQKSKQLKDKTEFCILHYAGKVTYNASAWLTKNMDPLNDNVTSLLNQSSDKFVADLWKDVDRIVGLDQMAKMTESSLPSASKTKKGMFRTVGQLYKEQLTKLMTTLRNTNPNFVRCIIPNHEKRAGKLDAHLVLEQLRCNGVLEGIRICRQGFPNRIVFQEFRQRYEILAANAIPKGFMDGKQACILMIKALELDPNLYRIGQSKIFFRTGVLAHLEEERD

Usually pIC50 stands for −log10 of the IC50, conventionally taken in molar units. Turning to `CC(C)(C)OC(=O)NCCN1CCC[C@H](NC(=O)c2ccc(-c3ccccc3C#N)nc2NCCc2cccc(F)c2)C1=O` (stereo in doubt) [N-(1-{2-[(tert-butoxy)carbonylamino]ethyl}-2-oxo(3-piperidyl))(6-(2-cyanophenyl)-2-{[2-(3-fluorophenyl)ethyl]amino}(3-pyridyl))carboxamide], the negative-log IC50 (pIC50) was 4.82.
Regarding `N#Cc1ccccc1-c1ccc(C(=O)N[C@H]2CCCN(CCN)C2=O)c(NCCc2cccc(F)c2)n1` (stereo in doubt) [N-[1-(2-aminoethyl)-2-oxo(3-piperidyl)](6-(2-cyanophenyl)-2-{[2-(3-fluorophenyl)ethyl]amino}(3-pyridyl))carboxamide], the pIC50 is 4.73.
On to `N#Cc1ccccc1-c1ccc(C(=O)NCCN2CCC[C@H](N)C2=O)c(NCCc2cccc(F)c2)n1` (stereo in doubt) [N-[2-(3-amino-2-oxopiperidyl)ethyl](6-(2-cyanophenyl)-2-{[2-(3-fluorophenyl)ethyl]amino}(3-pyridyl))carboxamide], for which the negative logarithm of the IC50 (pIC50) is 5.53.
For `CC(=O)N1CC(=O)N[C@@H](CNC(=O)c2ccc(-c3ccccc3C#N)nc2NCCc2cccc(F)c2)C1` (stereo in doubt) [N-[(4-acetyl-6-oxopiperazin-2-yl)methyl](6-(2-cyanophenyl)-2-{[2-(3-fluorophenyl)ethyl]amino}(3-pyridyl))carboxamide], the pIC50 is 5.79.
Turning to `OC(CNCc1ccccn1)c1ccc(-c2ccccc2)nc1NCCc1cccc(F)c1` (stereo not drawn) [1-(2-{[2-(3-fluorophenyl)ethyl]amino}-6-phenyl(3-pyridyl))-2-[(2-pyridylmethyl)amino]ethan-1-ol], the pIC50 is 4.71.
For the compound `N#Cc1ccccc1-c1ccc(CC(=O)NCc2cccnc2)c(NCCc2cccc(F)c2)n1` [2-(6-(2-cyanophenyl)-2-{[2-(3-fluorophenyl)ethyl]amino}(3-pyridyl))-N-(3-pyridylmethyl)acetamide], the negative-log IC50 (pIC50) is 4.88.
Turning to `NC(=O)c1ccccc1-c1ccc(C(=O)NCc2cccnc2)c(NCCc2cccc(F)c2)n1` [2-(6-{[2-(3-fluorophenyl)ethyl]amino}-5-[N-(3-pyridylmethyl)carbamoyl]-2-pyridyl)benzamide], the negative-log IC50 (pIC50) is 4.79.
For `Cn1cc(-c2nc(NCCc3cccc(F)c3)c(C(=O)NC[C@H]3CCN3C(=O)COC(=O)CNC(=O)OC(C)(C)C)cc2F)cn1` [2-((2R)-2-{[(5-fluoro-2-{[2-(3-fluorophenyl)ethyl]amino}-6-(1-methylpyrazol-4-yl)(3-pyridyl))carbonylamino]methyl}azetidinyl)-2-oxoethyl 2-[(tert-butoxy)carbonylamino]acetate], the pIC50 is 6.72.
In the case of `Cn1cc(-c2nc(NCCc3cccc(F)c3)c(C(=O)NC[C@H]3CCN3C(=O)COC(=O)CN)cc2F)cn1` [2-((2R)-2-{[(5-fluoro-2-{[2-(3-fluorophenyl)ethyl]amino}-6-(1-methylpyrazol-4-yl)(3-pyridyl))carbonylamino]methyl}azetidinyl)-2-oxoethyl 2-aminoacetate], the pIC50 was 7.35.
As for `COP(=O)(OC)OCC(=O)N1CC[C@@H]1CNC(=O)c1cc(F)c(-c2cnn(C)c2)nc1NCCc1cccc(F)c1` [2-((2R)-2-{[(5-fluoro-2-{[2-(3-fluorophenyl)ethyl]amino}-6-(1-methylpyrazol-4-yl)(3-pyridyl))carbonylamino]methyl}azetidinyl)-2-oxoethyl dimethyl phosphate], the pIC50 was 6.40.
With `NCC1CCCCN1C(=O)c1ccc(-c2ccccc2)nc1NCCc1ccccn1` (stereo not drawn) [2-(aminomethyl)piperidyl 6-phenyl-2-[(2-(2-pyridyl)ethyl)amino](3-pyridyl) ketone], the negative logarithm of the IC50 (pIC50) was 4.74.
The same measure for `NCCCN1C(=O)CC[C@@H]1CNC(=O)c1ccc(-c2ccccc2C(N)=O)nc1NCCc1cccc(F)c1` [2-[5-(N-{[(2R)-1-(3-aminopropyl)-5-oxopyrrolidin-2-yl]methyl}carbamoyl)-6-{[2-(3-fluorophenyl)ethyl]amino}-2-pyridyl]benzamide]: 4.88; for `CNC(=O)CNC(=O)c1ccc(-c2cnn(C)c2)nc1NCCc1cccc(F)c1` [2-[(2-{[2-(3-fluorophenyl)ethyl]amino}6-(1-methylpyrazol-4-yl)(3-pyridyl))carbonylamino]-N-methylacetamide]: 6.46; for `CNC(=O)CNC(=O)c1ccc(-c2ccc(CO)s2)nc1NCCc1cccc(F)c1` [2-[(2-{[2-(3-fluorophenyl)ethyl]amino}-6-[5-(hydroxymethyl)(2-thienyl)](3-pyridyl))carbonylamino]-N-methylacetamide]: 6.60.
Consider `CNC(=O)CNC(=O)c1ccc(-c2cn[nH]c2)nc1NCCc1cccc(F)c1` [2-[(2-{[2-(3-fluorophenyl)ethyl]amino}-6-pyrazol-4-yl(3-pyridyl))carbonylamino]-N-methylacetamide], for which the pIC50 was 6.48.
Regarding `CNC(=O)CNC(=O)c1cc(F)c(-c2cn[nH]c2)nc1NCCc1cccc(F)c1` [2-[(5-fluoro-2-{[2-(3-fluorophenyl)ethyl]amino}-6-pyrazol-4-yl(3-pyridyl))carbonylamino]-N-methylacetamide], the pIC50 is 7.19.
As for `CN(C)C(=O)CNC(=O)c1ccc(-c2ccccc2C#N)nc1NCCc1cccc(F)c1` [2-[(6-(2-cyanophenyl)-2-{[2-(3-fluorophenyl)ethyl]amino}(3-pyridyl))carbonylamino]-N,N-dimethylacetamide], the pIC50 was 6.27.
The same measure for `N#Cc1ccccc1-c1ccc(C(=O)NCC(=O)NCCO)c(NCCc2cccc(F)c2)n1` [2-[(6-(2-cyanophenyl)-2-{[2-(3-fluorophenyl)ethyl]amino}(3-pyridyl))carbonylamino]-N-(2-hydroxyethyl)acetamide]: 5.68; for `N#Cc1ccccc1-c1ccc(C(=O)NCC(=O)NCCCO)c(NCCc2cccc(F)c2)n1` [2-[(6-(2-cyanophenyl)-2-{[2-(3-fluorophenyl)ethyl]amino}(3-pyridyl))carbonylamino]-N-(3-hydroxypropyl)acetamide]: 5.23.
The same measure for `CS(=O)(=O)NC(=O)CNC(=O)c1ccc(-c2ccccc2C#N)nc1NCCc1cccc(F)c1` [2-[(6-(2-cyanophenyl)-2-{[2-(3-fluorophenyl)ethyl]amino}(3-pyridyl))carbonylamino]-N-(methylsulfonyl)acetamide]: 4.60; for `CNCCNC(=O)CNC(=O)c1ccc(-c2ccccc2C#N)nc1NCCc1cccc(F)c1` [2-[(6-(2-cyanophenyl)-2-{[2-(3-fluorophenyl)ethyl]amino}(3-pyridyl))carbonylamino]-N-[2-(methylamino)ethyl]acetamide]: 4.95; for `CNC(=O)CNC(=O)c1ccc(-c2ccccc2C#N)nc1NCCc1cccc(F)c1` [2-[(6-(2-cyanophenyl)-2-{[2-(3-fluorophenyl)ethyl]amino}(3-pyridyl))carbonylamino]-N-methylacetamide]: 6.99.
`CN(CCNC(=O)c1ccc(-c2ccccc2C#N)nc1NCCc1cccc(F)c1)C(=O)CNC(=O)OC(C)(C)C` [2-[(tert-butoxy)carbonylamino]-N-{2-[(6-(2-cyanophenyl)-2-{[2-(3-fluorophenyl)ethyl]amino}(3-pyridyl))carbonylamino]ethyl}-N-methylacetamide]: the pIC50 was 4.82.
Consider `Cn1cc(-c2nc(NCCc3cccc(F)c3)c(C(=O)NCCCNC(=O)CNC(=O)OC(C)(C)C)cc2F)cn1` [2-[(tert-butoxy)carbonylamino]-N-{3-[(5-fluoro-2-{[2-(3-fluorophenyl)ethyl]amino}-6-(1-methylpyrazol-4-yl)(3-pyridyl))carbonylamino]propyl}acetamide], for which the pIC50 was 6.11.
For `NCC(O)c1ccc(-c2ccccc2)nc1NCCc1cccc(F)c1` (stereo not drawn) [2-amino-1-(2-{[2-(3-fluorophenyl)ethyl]amino}-6-phenyl(3-pyridyl))ethan-1-ol], the pIC50 was 4.28.
Regarding `CN(CCNC(=O)c1ccc(-c2ccccc2C#N)nc1NCCc1cccc(F)c1)C(=O)CN` [2-amino-N-{2-[(6-(2-cyanophenyl)-2-{[2-(3-fluorophenyl)ethyl]amino}(3-pyridyl))carbonylamino]ethyl}-N-methylacetamide], the negative-log IC50 (pIC50) was 5.86.
Consider `N#Cc1ccccc1-c1ccc(C(=O)NCCNC(=O)CN)c(NCCc2cccc(F)c2)n1` [2-amino-N-{2-[(6-(2-cyanophenyl)-2-{[2-(3-fluorophenyl)ethyl]amino}(3-pyridyl))carbonylamino]ethyl}acetamide], for which the pIC50 is 5.91.

The record behind these values is US7932270B2 (Cytokinetics, Inc., priority 2006, dated 2011).
